Legend:
Experiment in all cases: relative viability vs DMSO control (72 h) (fraction); higher = more viable cells
SW1353 = test system: SW1353
How it was run: (§1)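 ATPLite readings, expressed as percent growth and averaged over up to triplicate wells, provided relative viability. Before reading, sarcoma cell lines seeded in 384-well plates to reach 80–90% confluence received 2.5 µl of serially diluted compound after 24 h, from source plates of 10 mM to 0.0002 mM. Plates were held 72 h at 37 °C, 5% CO2, with 0.1% DMSO as vehicle and a 5 µM positive control. The data were rescaled to 1 for full and 0 for none.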

SW982 = test system: SW982
How it was run: as §1

HT1080 = test system: HT1080
How it was run: as §1

RD-ES = test system: RD-ES
How it was run: as §1

KHOS-240S = test system: KHOS-240S
How it was run: as §1

N#CC1(c2ccc(NC(=O)c3cccnc3NCc3ccncc3)cc2)CCCC1 [Apatinib]
relative viability
Details | HT1080 | KHOS-240S | RD-ES | SW982 | SW1353
0.00017 µM | 1.02 | 1.04 | 0.936 | 0.96 | 1.03
0.00051 µM | 1.05 | 1.06 | 0.968 | 0.978 | 1.005
0.00152 µM | 1.05 | 1.05 | 0.979 | 0.994 | 0.988
0.00457 µM | 1.081 | 1.04 | 0.946 | 0.9695 | 1.01
0.01372 µM | 1.07 | 1.04 | 0.942 | 0.99 | 0.9811
0.04115 µM | 1.05 | 1.05 | 0.961 | 1.009 | 0.992
0.1235 µM | 1.069 | 1.03 | 0.955 | 1 | 0.981
0.3704 µM | 1.04 | 0.991 | 0.902 | 0.958 | 0.948
1.111 µM | 1.03 | 0.97 | 0.91 | 0.979 | 0.935
3.333 µM | 1.04 | 0.956 | 0.892 | 0.975 | 0.994
10 µM | 0.9829 | 0.873 | 0.798 | 0.999 | 0.928

Cc1cccc(-c2nn3c(c2-c2ccnc4ccc(C(N)=O)cc24)CCC3)n1 [Galunisertib]
relative viability
Details | HT1080 | KHOS-240S | RD-ES | SW982 | SW1353
0.00017 µM | 1.06 | 1.06 | 0.932 | 1 | 1.01
0.00051 µM | 1.04 | 1.07 | 0.975 | 1.02 | 0.967
0.00152 µM | 0.959 | 1.06 | 0.979 | 0.965 | 0.991
0.00457 µM | 1.04 | 1.06 | 0.965 | 1 | 0.954
0.01372 µM | 1.04 | 1.04 | 0.979 | 0.999 | 0.962
0.04115 µM | 1.01 | 1.01 | 0.9533 | 0.98 | 0.926
0.1235 µM | 1.01 | 0.996 | 0.92 | 0.974 | 0.9202
0.3704 µM | 1.04 | 0.971 | 0.915 | 0.977 | 0.959
1.111 µM | 1.04 | 0.987 | 0.913 | 0.988 | 0.967
3.333 µM | 1.03 | 0.966 | 0.886 | 0.98 | 1
10 µM | 1.02 | 0.929 | 0.894 | 1.05 | 0.976

N#CCNC(=O)c1ccc(-c2ccnc(Nc3ccc(N4CCOCC4)cc3)n2)cc1 [Momelotinib]
relative viability
Details | HT1080 | KHOS-240S | RD-ES | SW982 | SW1353
0.00017 µM | 1.03 | 1.05 | 0.9849 | 0.986 | 1.1
0.00051 µM | 1.1 | 1.03 | 0.981 | 1.02 | 1.05
0.00152 µM | 1.069 | 1.08 | 0.9765 | 1.025 | 1.07
0.00457 µM | 1.06 | 1.05 | 0.965 | 1.02 | 1.07
0.01372 µM | 1.08 | 1.08 | 0.976 | 0.983 | 1.06
0.04115 µM | 1.09 | 1.03 | 0.954 | 1 | 1.04
0.1235 µM | 1.12 | 0.992 | 0.955 | 0.987 | 1.03
0.3704 µM | 1.17 | 0.92 | 0.896 | 0.841 | 0.963
1.111 µM | 1.18 | 0.789 | 0.818 | 0.604 | 0.7816
3.333 µM | 1.25 | 0.768 | 0.84 | 0.548 | 0.739
10 µM | 1.21 | 0.725 | 0.797 | 0.436 | 0.511

Source: the supplement of paper PMC10883282
